Consider two molecules from publication PMC3005796 (Biochemistry, 2010).

Data set [1] has as its target P450 2B6 (Homo sapiens, UniProt P20813, D28G/E2A/H23K/H27K/N25S/P24T/R22K/R29K/T26S). Description: biochemical.
Data set [2] deals with T1, Human cytochrome P450 2B6dH (Homo sapiens, UniProt P20813). Particulars: 1 μM P450, 25 °C, 50 mM potassium phosphate pH 7.4, 500 mM NaCl, 500 mM sucrose.
Data set [3] deals with T2, P450 2B4 (Oryctolagus cuniculus, UniProt P00178, H226Y). The note with it: ratio 2B4/2B6.
Data set [4] deals with T3, Cytochrome P450 2B4dH(H226Y) (Oryctolagus cuniculus, UniProt P00178, H226Y). Description: biochemical.
Data set [5] deals with T3, Cytochrome P450 2B4dH(H226Y). Particulars: for ΔAmax: 2B4dH, 1 μM P450, 25 °C, 50 mM potassium phosphate pH 7.4, 500 mM NaCl, 500 mM sucrose.
The test system of data set [6] is 2B6. Particulars: ref [20]; cited from earlier work.
Data set [7] addresses T1, Human cytochrome P450 2B6dH. Kind of data set: biochemical.
Data set [8] deals with T2, P450 2B4. Kind of data set: biochemical.

`COC(=O)[C@H](c1ccccc1Cl)N1CCc2sccc2C1` [Clopidogrel, clopidogrel]: the Ki – broadly, the dissociation constant of the complex between target and ligand, obtained from inhibition or displacement – in data set [1] is 100 ± 10 nM; in data set [8], 360 ± 40 nM. The ΔAmax was 0.04 ± 0.005 OU μM^-1 in data set [2] and 0.05 ± 0.001 OU μM^-1 in data set [5]. For the same molecule, the “fold higher Ki of 2B4 than 2B6” value in data set [3] was 4 fold. Also, the results for the Kd in data set [4] and in data set [7] were 600 ± 60 nM and 100 ± 70 nM, respectively. In data set [5] (ratio 2B4/2B6), the “fold higher Ks of 2B4 compared with 2B6” value is reported as roughly 6 fold. The “suppression of bupropion hydroxylation by 2B6” value in data set [6] is on record as 68%.
As for `Clc1ccccc1CN1CCc2sccc2C1` [Ticlopidine, ticlopidine], the ΔAmax in data set [2] was determined as 0.02 ± 0.001 OU μM^-1; in data set [5], 0.03 ± 0.008 OU μM^-1. Moreover, the Kd (usually the concentration at which binding is half-saturated) in data set [4] stood at 1300 ± 100 nM. In data set [6], the “suppression of bupropion hydroxylation by 2B6” value is 90%. In data set [8], this molecule displayed an inhibitory constant (Ki) of 810 ± 100 nM.
